Experimental data as given in patent US12679878B2, “CRF2 receptor agonists and their use in therapy” (SANOFI, priority 2020, dated 2026).
Converted amounts (≈) assume the structure as drawn. Starred links: 1 amine or outer side, 2 acyl side, 3 side chain; linkers in the order of their positions; H or OH if unused. Non-standard residues stand in square brackets, D forms with d. Residues, ends and D or L forms follow the SMILES beside them. Groups on a side chain read outwards from the residue. *: point of attachment. γGlu = O=C(O)[C@H](CCC(=O)[*:2])N[*:1]; Palmitoyl = CCCCCCCCCCCCCCCC(=O)*; Aib = CC(C)(N)C(=O)O

Legend:
[1] = Solubility in buffer systems by UPLC-UV (Example 13); assay type: physicochemical
Protocol: Prior to performing the solubility measurements, the purity of the compounds was determined through UPLC/MS. […] Therefore, solutions from solid samples were prepared in a buffer system with a concentration of 10 mg/mL compound based on the previously determined % purity.
UPLC-UV was performed after 1 hour of gentle agitation from the supernatant, which was obtained after 15 minutes of centrifugation at 2500 RCF (relative centrifugal acceleration). The solubility was determined by the comparison of the UV peak area of a 2 μL-injection of a buffered sample diluted 1:10 with a standard curve of a reference compound with known concentration. The different UV extinction coefficients of sample and reference compound were calculated based on the different amino acid sequences and considered in the concentration calculation.

human CRF2α receptor = biological target: T1, human CRF2α receptor (Homo sapiens, UniProt Q13324); assay: cAMP agonism at human CRF2 α receptor in TeloHEAC cells (Example 7); assay type: cell-based; conditions: cAMP HTRF, TeloHEAC cells stably expressing human CRF2 α, 0% HSA; read-out: EC50 [nM], 0% HSA
T1 construct: expressed in transfected cells; host or cells: TeloHEAC
T1 sequence (Q13324 1-411): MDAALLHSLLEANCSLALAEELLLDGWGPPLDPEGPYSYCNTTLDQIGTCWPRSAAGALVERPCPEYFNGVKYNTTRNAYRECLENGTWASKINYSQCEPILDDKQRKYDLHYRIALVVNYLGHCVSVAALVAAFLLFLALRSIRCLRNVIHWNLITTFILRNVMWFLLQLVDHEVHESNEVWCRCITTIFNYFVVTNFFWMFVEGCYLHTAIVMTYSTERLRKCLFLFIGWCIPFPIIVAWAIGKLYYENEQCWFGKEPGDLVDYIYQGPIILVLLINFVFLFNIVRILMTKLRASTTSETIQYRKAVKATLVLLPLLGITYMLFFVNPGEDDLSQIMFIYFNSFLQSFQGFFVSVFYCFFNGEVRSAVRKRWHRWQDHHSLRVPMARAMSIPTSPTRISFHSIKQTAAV
In short: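 Thawed frozen stably transfected cells in HBSS/20 mM HEPES (0% or 0.1% HSA) plus 2 mM IBMX were exposed to compound at 2000 cells/well for 30 min at room temperature. Intracellular cAMP was read by HTRF (665/620 nm ratio) after 1 h lysis; EC50 was derived with 1000 nM urocortin 2 set as 100%.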

CRF1R receptor = biological target: T2, CRF1R receptor (Homo sapiens, UniProt P34998); assay: cAMP activity at anti-target CRF1R, CRF1R-overexpression CHO cell line (Example 9); assay type: cell-based; conditions: CRF1R-overexpression CHO cell line; for EC50: 0% HSA; for Emax: read-out: Emax (%)
T2 construct: host or cells: CHO-K1 clone 2
T2 sequence (P34998 24-415): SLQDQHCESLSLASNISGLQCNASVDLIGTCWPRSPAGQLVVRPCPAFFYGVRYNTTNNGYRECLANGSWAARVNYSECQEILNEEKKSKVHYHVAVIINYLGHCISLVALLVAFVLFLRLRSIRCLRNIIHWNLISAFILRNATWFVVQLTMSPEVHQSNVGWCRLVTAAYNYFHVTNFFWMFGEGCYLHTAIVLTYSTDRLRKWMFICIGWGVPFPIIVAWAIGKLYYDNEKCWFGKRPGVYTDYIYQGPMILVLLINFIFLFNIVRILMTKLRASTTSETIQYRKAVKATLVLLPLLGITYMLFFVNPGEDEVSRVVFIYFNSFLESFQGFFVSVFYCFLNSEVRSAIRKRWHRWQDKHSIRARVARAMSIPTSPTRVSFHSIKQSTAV
In short: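 cAMP accumulation was read by HTRF after 30 min at room temperature of compound treatment. Cells were cryopreserved CHO cells overexpressing CRF1R, plated at 2000/well in IBMX (2 mM)-containing HBSS/HEPES buffer with 0 or 0.1% HSA. Activity was normalized to 1000 nM UCN2 as 100%.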

[2] = pH 4.5, Solubility in Buffer B [mg/ml]
[3] = pH 7.4, Solubility in Buffer C [mg/ml]
[4] = pH 4.5, Solubility in Buffer A [mg/ml]

`CCCCCCCCCCCCCCCC(=O)N[C@@H](CCC(=O)NCCCC[C@H](NC(=O)[C@H](CC(C)C)NC(=O)[C@H](CCCCN)NC(=O)[C@@H](NC(=O)[C@@H]1CCCN1C(=O)[C@@H](NC(=O)[C@H](CC(=O)O)NC(=O)[C@H](CC(C)C)NC(=O)[C@H](CO)NC(=O)[C@H](CC(C)C)NC(=O)[C@@H](NC(=O)[C@@H](N)[C@@H](C)CC)C(C)C)C(C)C)[C@@H](C)CC)C(=O)N[C@@H](CCCCN)C(=O)N[C@H](C(=O)N[C@@H](CC(C)C)C(=O)N[C@@H](CC(C)C)C(=O)N[C@@H](CCC(=O)O)C(=O)N[C@@H](CCC(N)=O)C(=O)N[C@@H](CCC(=O)O)C(=O)N[C@@H](CCCCN)C(=O)N[C@@H](CCC(N)=O)C(=O)N[C@@H](CCC(=O)O)C(=O)N[C@@H](CCCCN)C(=O)N[C@@H](CCC(=O)O)C(=O)N[C@@H](CCCCN)C(=O)N[C@@H](CCC(N)=O)C(=O)N[C@@H](CCC(N)=O)C(=O)N[C@@H](C)C(=O)N[C@@H](CCC(=O)O)C(=O)N[C@@H](CCCCN)C(=O)N[C@@H](CC(N)=O)C(=O)N[C@@H](C)C(=O)N[C@@H](CCC(N)=O)C(=O)N[C@H](C(=O)N[C@@H](CC(C)C)C(=O)N[C@@H](C)C(=O)N[C@@H](CCC(N)=O)C(=O)N[C@H](C(N)=O)C(C)C)[C@@H](C)CC)[C@@H](C)CC)C(=O)O` [compound 3] (H-IVLSLDVPIKLK([γGlu-Palmitoyl])KILLEQEKQEKEKQQAEKNAQILAQV-NH2) gave a solubility at 1 h [1, 2] greater than 8.8 mg/mL and an EC50 (human CRF2α receptor) of 0.01 nM.
`CCCCCCCCCCCCCCCC(=O)N[C@@H](CCC(=O)NCCCC[C@H](NC(=O)[C@@H](NC(=O)[C@H](CCCCN)NC(=O)[C@@H](NC(=O)[C@@H]1CCCN1C(=O)[C@@H](NC(=O)[C@H](CC(=O)O)NC(=O)[C@H](CC(C)C)NC(=O)[C@H](CO)NC(=O)[C@H](CC(C)C)NC(=O)[C@@H](NC(=O)[C@@H](N)Cc1ccccc1)[C@@H](C)O)C(C)C)[C@@H](C)O)[C@@H](C)CC)C(=O)N[C@@H](CCC(N)=O)C(=O)N[C@@H](CCCCN)C(=O)N[C@@H](CC(C)C)C(=O)N[C@@H](CC(C)C)C(=O)N[C@@H](CCCCN)C(=O)N[C@@H](CCC(N)=O)C(=O)N[C@@H](CCC(=O)O)C(=O)N[C@@H](CCCCN)C(=O)N[C@@H](CCC(N)=O)C(=O)N[C@@H](CCCCN)C(=O)N[C@@H](CCCCN)C(=O)N[C@@H](CCC(N)=O)C(=O)N[C@@H](CCCNC(=N)N)C(=O)N[C@@H](CCC(N)=O)C(=O)N[C@@H](CCCCN)C(=O)N[C@@H](C)C(=O)N[C@@H](CCCCN)C(=O)N[C@H](C(=O)N[C@@H](CC(N)=O)C(=O)N[C@@H](CCCCN)C(=O)N[C@@H](CCC(N)=O)C(=O)N[C@H](C(=O)N[C@@H](CC(C)C)C(=O)N[C@@H](CCC(=O)O)C(=O)N[C@@H](CCC(N)=O)C(=O)N[C@H](C(N)=O)C(C)C)[C@@H](C)CC)[C@@H](C)O)C(=O)O` [compound 10] (H-FTLSLDVPTKIK([γGlu-Palmitoyl])QKLLKQEKQKKQRQKAKTNKQILEQV-NH2) showed a solubility at 1 h [1, 3] greater than 10 mg/mL, an EC50 (CRF1R receptor) greater than 1000 nM and an Emax (CRF1R receptor) of 10.2%.
With `CCCCCCCCCCCCCCCC(=O)N[C@@H](CCC(=O)NCCCC[C@H](NC(=O)[C@@H](NC(=O)[C@H](CCCCN)NC(=O)[C@@H](NC(=O)[C@@H]1CCCN1C(=O)[C@@H](NC(=O)[C@H](CC(=O)O)NC(=O)[C@H](CC(C)C)NC(=O)[C@H](CO)NC(=O)[C@H](CC(C)C)NC(=O)[C@@H](NC(=O)[C@@H](N)Cc1ccccc1)[C@@H](C)O)C(C)C)[C@@H](C)O)[C@@H](C)CC)C(=O)N[C@@H](CCC(N)=O)C(=O)N[C@@H](CCCCN)C(=O)N[C@@H](CC(C)C)C(=O)N[C@@H](CC(C)C)C(=O)N[C@@H](CCCCN)C(=O)N[C@@H](CCC(N)=O)C(=O)N[C@@H](CCC(=O)O)C(=O)N[C@@H](CCCCN)C(=O)N[C@@H](CCC(N)=O)C(=O)N[C@@H](CCCNC(=N)N)C(=O)N[C@@H](CCCCN)C(=O)N[C@@H](CCC(N)=O)C(=O)N[C@@H](CCCCN)C(=O)N[C@@H](CCC(N)=O)C(=O)N[C@@H](CCCCN)C(=O)N[C@@H](C)C(=O)N[C@@H](CCCCN)C(=O)N[C@H](C(=O)N[C@@H](CC(N)=O)C(=O)N[C@@H](C)C(=O)N[C@@H](CCCCN)C(=O)N[C@H](C(=O)N[C@@H](CC(C)C)C(=O)N[C@@H](C)C(=O)N[C@@H](CCCNC(=N)N)C(=O)N[C@H](C(N)=O)C(C)C)[C@@H](C)CC)[C@@H](C)O)C(=O)O` [compound 14] (H-FTLSLDVPTKIK([γGlu-Palmitoyl])QKLLKQEKQRKQKQKAKTNAKILARV-NH2; N-terminus assumed) the solubility at 1 h [1, 4] was greater than 9.1 mg/mL, the solubility at 1 h [1, 3] was greater than 8.7 mg/mL and the EC50 (CRF1R receptor) was greater than 1000 nM. For the same compound, the Emax (CRF1R receptor) was 14.1% and the EC50 (human CRF2α receptor) was 0.18 nM.
In the case of `CCCCCCCCCCCCCCCC(=O)N[C@@H](CCC(=O)NCCCC[C@H](NC(=O)[C@H](CC(C)C)NC(=O)[C@H](CCCCN)NC(=O)[C@@H](NC(=O)[C@@H]1CCCN1C(=O)[C@H](NC(=O)[C@H](CC(=O)O)NC(=O)[C@H](CC(C)C)NC(=O)[C@H](CO)NC(=O)[C@H](CC(C)C)NC(=O)[C@@H](NC(=O)[C@@H](N)[C@@H](C)CC)C(C)C)C(C)C)[C@@H](C)O)C(=O)N[C@@H](CCC(N)=O)C(=O)N[C@@H](CCCCN)C(=O)N[C@@H](CC(C)C)C(=O)N[C@@H](CC(C)C)C(=O)N[C@@H](CCCCN)C(=O)N[C@@H](CCC(N)=O)C(=O)N[C@@H](CCC(=O)O)C(=O)N[C@@H](CCCNC(=N)N)C(=O)N[C@@H](CCC(N)=O)C(=O)N[C@@H](CCCNC(=N)N)C(=O)N[C@@H](CCCCN)C(=O)NC(C)(C)C(=O)N[C@@H](CCCNC(=N)N)C(=O)N[C@@H](CCC(=O)O)C(=O)N[C@@H](CCC(N)=O)C(=O)N[C@@H](C)C(=O)N[C@@H](CCC(=O)O)C(=O)N[C@@H](CCCCN)C(=O)N[C@@H](CC(N)=O)C(=O)N[C@@H](CCCCN)C(=O)N[C@@H](CCCNC(=N)N)C(=O)N[C@H](C(=O)N[C@@H](CC(C)C)C(=O)N[C@@H](CCC(=O)O)C(=O)N[C@@H](CCCNC(=N)N)C(=O)N[C@H](C(N)=O)C(C)C)[C@@H](C)CC)C(=O)O` [compound 20] (H-IVLSLD[dV]PTKLK([γGlu-Palmitoyl])QKLLKQERQRK[Aib]REQAEKNKRILERV-NH2; N-terminus assumed), the solubility at 1 h [1, 4] is reported as greater than 9.5 mg/mL, the solubility at 1 h [1, 2] is reported as greater than 9.1 mg/mL and the solubility at 1 h [1, 3] is reported as 6.8 mg/mL (≈ 1370 µM). It also gave an EC50 (human CRF2α receptor) of 0.01 nM.
`CCCCCCCCCCCCCCCC(=O)N[C@@H](CCC(=O)NCCCC[C@H](NC(=O)[C@H](CC(C)C)NC(=O)[C@H](CCCCN)NC(=O)[C@@H](NC(=O)[C@@H]1CCCN1C(=O)[C@H](NC(=O)[C@H](CC(=O)O)NC(=O)[C@H](CC(C)C)NC(=O)[C@H](CO)NC(=O)[C@H](CC(C)C)NC(=O)[C@@H](NC(=O)[C@@H](N)[C@@H](C)CC)C(C)C)C(C)C)[C@@H](C)O)C(=O)N[C@@H](CCC(N)=O)C(=O)N[C@@H](CCCCN)C(=O)N[C@@H](CC(C)C)C(=O)N[C@@H](CC(C)C)C(=O)N[C@@H](CCCCN)C(=O)N[C@@H](CCC(N)=O)C(=O)N[C@@H](CCC(=O)O)C(=O)N[C@@H](CCCNC(=N)N)C(=O)N[C@@H](CCC(N)=O)C(=O)N[C@@H](CCCNC(=N)N)C(=O)N[C@@H](CCCCN)C(=O)N[C@@H](CCC(=O)O)C(=O)N[C@@H](CCCNC(=N)N)C(=O)NC(C)(C)C(=O)N[C@@H](CCC(N)=O)C(=O)N[C@@H](C)C(=O)N[C@@H](CCC(=O)O)C(=O)N[C@@H](CCCCN)C(=O)N[C@@H](CC(N)=O)C(=O)N[C@@H](CCCCN)C(=O)N[C@@H](CCCNC(=N)N)C(=O)N[C@H](C(=O)N[C@@H](CC(C)C)C(=O)N[C@@H](CCC(=O)O)C(=O)N[C@@H](CCCNC(=N)N)C(=O)N[C@H](C(N)=O)C(C)C)[C@@H](C)CC)C(=O)O` [compound 23] (H-IVLSLD[dV]PTKLK([γGlu-Palmitoyl])QKLLKQERQRKER[Aib]QAEKNKRILERV-NH2; N-terminus assumed) gave a solubility at 1 h [1, 3] of 9.1 mg/mL (≈ 1830 µM) and an EC50 (human CRF2α receptor) of 0.02 nM.
